In patent US12280040B2, “Compositions and methods of a dihydroisoxazole compound that reduces ectoparasite infestations on fish” (EVAH Atlantic Inc., priority 2023, dated 2025):

Tested on: Lepeophtheirus salmonis
Experiment: Efficacy of medicated feed against an existing experimental sea lice infestation on Atlantic salmon post-smolts (Example 1)
Type: in vivo
Procedure: A randomized, blinded, parallel-group, negative-controlled study was conducted in which, the active ingredient was administered in medicated feed to laboratory-maintained Atlantic salmon (Salmo salar) post-smolts in seawater. Smolts were experimentally infested with sea lice (Lepeophtheirus salmonis) under laboratory conditions prior to being fed the medicated diet to assess the efficacy of the active ingredient in reducing the number of sea lice/fish.
Healthy Atlantic salmon post-smolts (n=750) were selected for enrollment and distributed sequentially across ten (10) study tanks. Fish were weighed individually during the allocation of fish to tanks on study day (SD)-95, with SD 0 serving as the first day of treatment. Fish were weighed on SD −2, +8, +18, +22, and +30. The fish weights on SD −2 were used to estimate the average weight of all fish and used to determine the feeding amount during the treatment period (SD 0−+6). A target of total of 10 fish/tank were lethally sampled, lice-counted, and weight and length were measured. The mean weight of fish in tanks on SD −2 was 829.9±161.7 g.
Atlantic salmon post-smolts were infested once with sea lice using an experimental challenge model. About 50 copepodids (Lepeophtheirus salmonis) per fish were added to each tank on SD −17. During the study the water temperature varied between 8 and 12° C. The water oxygen saturation was consistently above 80% throughout the study.
Five treatment groups were randomly assigned to ten study tanks so that there were 2 tanks per treatment group. Study personnel were blinded as to the identity of the treatments for each tank.
Sea lice were counted four times during the study. All sampled fish were euthanized and lice counted. The baseline count occurred on SD −2 (with 10 fish per tank), corresponding to ˜160 degree days (15 d) post-infestation. The time was sufficient for lice development to the chalimus stage. Count 1 occurred on SD +8 (with 20 fish per tank) corresponding to ˜260 degree days (25 d) post infestation and 2 days post treatment. The time was sufficient for lice development into chalimus and pre-adult stages in the control tanks. Count 2 occurred on SD +18 (with 20 fish per tank) corresponding to ˜360 degree days (35 d) post infestation and 12 days post treatment. The time was sufficient for lice development into adult males and females in the control tanks. Count 3 occurred on SD +22 (with 20 fish per tank) corresponding to ˜400 degree days (39 d) post infestation and 16 days post treatment. The time was sufficient for lice development into adult males and females with no chalimus stages present in the control tanks.
Medicated feed was prepared by dry coating commercially available fish feed pellets with a premix containing the active ingredient to reach a content of about 1.6, 4.0. 8.0 and 19.9 mg/kg. The fish pellets were then coated with feed grade herring fish oil at an inclusion rate of about 0.75% w/w (7.5 g/kg feed) The consumption rate of the medicated feed was set to 0.628% body weight.
Treatment efficacy was computed for total number of sea lice/fish and total number of mobile life stages, i.e., preadult & adult sea lice/fish for each post-treatment sea lice counting occasion. For the total number of attached/fish, treatment efficacy was computed at the first count post-treatment. Percent efficacy was computed using Abbott's formula for each treatment group compared to control as follows:
[formula] where MC and MT are the arithmetic means of sea lice counts in the untreated control and S-roxapin-treated groups, respectively.
Treatments were considered efficacious when the percent efficacy was ≥90% for treated groups compared to untreated control groups.
The mean sea lice abundance was reported for different parasite life stages (attached, mobile, and total (attached and mobile together)) and computed as the number of lice on salmon divided by the number of sampled fish per tank. […]

[1] = 0.010 mg/kg/d in feed 7 d, 2 DPT
[2] = 0.010 mg/kg/d in feed 7 d, 12 DPT
[3] = 0.010 mg/kg/d in feed 7 d, 16 DPT
[4] = 0.025 mg/kg/d in feed 7 d, 2 DPT
[5] = 0.025 mg/kg/d in feed 7 d, 12 DPT
[6] = 0.025 mg/kg/d in feed 7 d, 16 DPT
[7] = 0.050 mg/kg/d in feed 7 d, 2 DPT
[8] = 0.050 mg/kg/d in feed 7 d, 12 DPT
[9] = 0.050 mg/kg/d in feed 7 d, 16 DPT
[10] = 0.125 mg/kg/d in feed 7 d, 2 DPT
[11] = 0.125 mg/kg/d in feed 7 d, 12 DPT
[12] = 0.125 mg/kg/d in feed 7 d, 16 DPT

## C#CCNC(=O)CNC(=O)c1sc(C2=NO[C@@](c3cc(Cl)c(Cl)c(Cl)c3)(C(F)(F)F)C2)cc1C [S-roxapin, (S)-3-methyl-N-(2-oxo-2-(prop-2-yn-1-ylamino)ethyl)-5-(5-(3,4,5-trichlorophenyl)-5-(trifluoromethyl)-4,5-dihydroisoxazol-3-yl)thiophene-2-carboxamide]
[1]
  Number of Attached Lice/Fish % Efficacy: 96.2%
  Number of Attached Lice/Fish Mean ± SD: 0.1 ± 0.3 lice/fish
  Number of Mobile Lice/Fish % Efficacy: 89.1%
  Number of Mobile Lice/Fish Mean ± SD: 1.7 ± 2.2 lice/fish
  Total Number of Lice/Fish % Efficacy: 90.3%
  Total Number of Lice/Fish Mean ± SD: 1.8 ± 2.4 lice/fish
[2]
  Number of Attached Lice/Fish Mean ± SD: 0.0 ± 0.0 lice/fish
  Number of Mobile Lice/Fish % Efficacy: 94.1%
  Number of Mobile Lice/Fish Mean ± SD: 1.1 ± 3.0 lice/fish
  Total Number of Lice/Fish % Efficacy: 94.1%
  Total Number of Lice/Fish Mean ± SD: 1.1 ± 3.0 lice/fish
[3]
  Number of Attached Lice/Fish Mean ± SD: 0.0 ± 0.0 lice/fish
  Number of Mobile Lice/Fish % Efficacy: 97.7%
  Number of Mobile Lice/Fish Mean ± SD: 0.5 ± 0.7 lice/fish
  Total Number of Lice/Fish % Efficacy: 97.7%
  Total Number of Lice/Fish Mean ± SD: 0.5 ± 0.7 lice/fish
[4]
  Number of Attached Lice/Fish % Efficacy: 98.5%
  Number of Attached Lice/Fish Mean ± SD: 0.1 ± 0.1 lice/fish
  Number of Mobile Lice/Fish % Efficacy: 98.8%
  Number of Mobile Lice/Fish Mean ± SD: 0.2 ± 0.3 lice/fish
  Total Number of Lice/Fish % Efficacy: 98.8%
  Total Number of Lice/Fish Mean ± SD: 0.2 ± 0.3 lice/fish
[5]
  Number of Attached Lice/Fish Mean ± SD: 0.1 ± 0.2 lice/fish
  Number of Mobile Lice/Fish % Efficacy: 99.9%
  Number of Mobile Lice/Fish Mean ± SD: 0.0 ± 0.1 lice/fish
  Total Number of Lice/Fish % Efficacy: 99.5%
  Total Number of Lice/Fish Mean ± SD: 0.1 ± 0.2 lice/fish
[6]
  Number of Attached Lice/Fish Mean ± SD: 0.0 ± 0.0 lice/fish
  Number of Mobile Lice/Fish % Efficacy: 99.9%
  Number of Mobile Lice/Fish Mean ± SD: 0.0 ± 0.1 lice/fish
  Total Number of Lice/Fish % Efficacy: 99.9%
  Total Number of Lice/Fish Mean ± SD: 0.0 ± 0.1 lice/fish
[7]
  Number of Attached Lice/Fish % Efficacy: 92.3%
  Number of Attached Lice/Fish Mean ± SD: 0.3 ± 0.3 lice/fish
  Number of Mobile Lice/Fish % Efficacy: 99.7%
  Number of Mobile Lice/Fish Mean ± SD: 0.1 ± 0.1 lice/fish
  Total Number of Lice/Fish % Efficacy: 98.4%
  Total Number of Lice/Fish Mean ± SD: 0.3 ± 0.3 lice/fish
[8]
  Number of Attached Lice/Fish Mean ± SD: 0.0 ± 0.0 lice/fish
  Number of Mobile Lice/Fish Mean ± SD: 0.1 ± 0.2 lice/fish
  Total Number of Lice/Fish % Efficacy: 99.6%
  Total Number of Lice/Fish Mean ± SD: 0.1 ± 0.2 lice/fish
[9]
  Number of Attached Lice/Fish Mean ± SD: 0.0 ± 0.0 lice/fish
  Number of Mobile Lice/Fish % Efficacy: 99.7%
  Number of Mobile Lice/Fish Mean ± SD: 0.1 ± 0.2 lice/fish
  Total Number of Lice/Fish % Efficacy: 99.7%
  Total Number of Lice/Fish Mean ± SD: 0.1 ± 0.2 lice/fish
[10]
  Number of Attached Lice/Fish % Efficacy: 93.8%
  Number of Attached Lice/Fish Mean ± SD: 0.2 ± 0.3 lice/fish
  Number of Mobile Lice/Fish % Efficacy: 99.8%
  Number of Mobile Lice/Fish Mean ± SD: 0.0 ± 0.1 lice/fish
  Total Number of Lice/Fish % Efficacy: 98.8%
  Total Number of Lice/Fish Mean ± SD: 0.2 ± 0.4 lice/fish
[11]
  Number of Attached Lice/Fish Mean ± SD: 0.0 ± 0.1 lice/fish
  Number of Mobile Lice/Fish % Efficacy: 100.0%
  Number of Mobile Lice/Fish Mean ± SD: 0.0 ± 0.0 lice/fish
  Total Number of Lice/Fish % Efficacy: 99.9%
  Total Number of Lice/Fish Mean ± SD: 0.0 ± 0.1 lice/fish
[12]
  Number of Attached Lice/Fish Mean ± SD: 0.1 ± 0.2 lice/fish
  Number of Mobile Lice/Fish % Efficacy: 99.9%
  Number of Mobile Lice/Fish Mean ± SD: 0.1 ± 0.2 lice/fish
  Total Number of Lice/Fish % Efficacy: 99.6%
  Total Number of Lice/Fish Mean ± SD: 0.1 ± 0.2 lice/fish
Dosages of 0.025, 0.050 and 0.125 mg/kg/d in medicated feed over 7 consecutive days
  efficacy compared with the lowest dosage (0.010 mg/kg/d): significantly higher efficacy
Medicated feed over 7 consecutive days to salmon, provisionally concluded
  observed minimum efficacious dosage relative to U.S. Pat. No. 9,920,037 (1.0 mg/kg/d): 20-40 times lower
